# Assay results: patent US9326513B2, “Fungicidal compositions” (Syngenta Participations AG, priority 2011, dated 2016)
# Where “and” joins values, the source holds several entries; their conditions need not be identical. Identical values can stand only once. Like-named read-outs stand apart in the source and are kept apart here.
# Assays:
# Pythium ultimum = Pythium ultimum (damping off), PDB microtiter plate, visual after 48 hrs; type: cell-based; conditions: solo, rate 0.03125 ppm
# [1] = test system: Blumeria graminis f. sp. tritici (Erysiphe graminis f. sp. tritici); assay: Blumeria graminis f. sp. tritici / wheat / leaf disc preventative (powdery mildew on wheat); type: in vivo; conditions: foliar, compared to untreated control leaf disks, read-out: disease control
# How it was run: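 Wheat leaf segments (cv. Kanzler) on agar were sprayed with formulated compound in water, inoculated with powdery mildew 1 day later, and kept at 20° C, 60% rh (24 h dark, then 12 h light/12 h dark). Percent disease control versus untreated scored 6-8 days after application; tested at 200 ppm.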
# [2] = test system: Puccinia recondita f. sp. tritici; assay: Puccinia recondita f. sp. tritici / wheat / leaf disc curative (brown rust); type: in vivo; conditions: foliar, compared to untreated control leaf disks, read-out: disease control
# Procedure: Puccinia recondita f. sp. tritici/Wheat/Leaf Disc Curative (Brown Rust) Wheat leaf segments cv. Kanzler are placed on agar in multiwell plates (24-well format). The leaf segments are inoculated with a spore suspension of the fungus. Plates were stored in darkness at 19° C. and 75% rh. The formulated test compound diluted in water was applied 1 day after inoculation.
# [3] = test system: Puccinia recondita f. sp. tritici; assay: Puccinia recondita f. sp. tritici / wheat / leaf disc preventative (brown rust); type: in vivo; conditions: foliar, compared to untreated control leaf disks, read-out: disease control
# Excerpt: Puccinia recondita f. sp. tritici/Wheat/Leaf Disc Preventative (Brown Rust) Wheat leaf segments cv. Kanzler were placed on agar in multiwell plates (24-well format) and sprayed with the formulated test compound diluted in water. The leaf disks were inoculated with a spore suspension of the fungus 1 day after application.
# [4] = test system: Phakopsora pachyrhizi (triazole tolerant soybeanrust strain); assay: Phakopsora pachyrhizi on soybean, preventive treatment; type: in vivo; conditions: solo, soybean leaf discs, 1 day preventive, 11 days after application
# Pyrenophora teres = Pyrenophora teres / barley / leaf disc preventative (net blotch); type: in vivo; conditions: foliar, compared to untreated control leaf disks, read-out: disease control
# Excerpt: Pyrenophora teres/Barley/Leaf Disc Preventative (Net Blotch) Barley leaf segments cv. Hasso were placed on agar in a multiwell plate (24-well format) and sprayed with the formulated test compound diluted in water. The leaf segments were inoculated with a spore suspension of the fungus 2 days after application.
# Septoria tritici [5] = assay: Septoria tritici (leaf blotch), YBG microtiter plate, photometric growth inhibition after 6 days; type: cell-based; conditions: Zymoseptoria tritici, 144 h, solo
# Excerpt: (§1) In the following Tables ‘Activity (%)’ means the assessed experimental activity (% disease control in this test when compared to untreated control leaf disks under the same conditions, which show extensive disease development) and “P” is the expected value calculated (expected) activity according to the COLBY formula (see above). The column headed ‘S?’ indicates whether or not synergy was observed, with ‘y’ meaning that synergy was observed.
# Septoria tritici (Leaf Blotch):
# After placing solutions of the test compounds (containing 0.2% DMSO) into a microtiter plate (96-well format), an equal amount of the nutrient broth (YBG) was added to each of the well. Finally the fungal spore solution was added. The test plates were incubated at 20° C. The inhibition of growth was determined photometrically after 6 days and the activity calculated in relation to untreated control.
# [6] = test system: Fusarium graminearum and Fusarium culmorum; type: in vivo; conditions: solo, wheat, 1 day preventive, 9 days after application
# Septoria tritici [7] = assay: Septoria tritici (leaf blotch), PDB microtiter plate, visual after 72 hrs; type: cell-based; conditions: Zymoseptoria tritici, single compound, 0.0125 ppm
# Botrytis cinerea = Botrytis cinerea (gray mould), PDB microtiter plate, visual after 72 hrs; type: cell-based; conditions: alone
# [8] = test system: Monographella nivalis (syn. Microdochium nivale, Fusarium nivale); assay: Monographella nivalis (snow mould, foot rot of cereals), PDB microtiter plate, visual after 72 hrs; type: cell-based; conditions: Monographella nivalis
# Gaeumannomvces graminis = Gaeumannomvces graminis (take-all of cereals), PDB microtiter plate, visual after 48 hrs; type: cell-based; conditions: solo
# Excerpt: In the following Tables ‘Activity (%)’ means the assessed experimental activity (% disease control in this test when compared to untreated control leaf disks under the same conditions, which show extensive disease development) and “P” is the expected value calculated (expected) activity according to the COLBY formula (see above). The column headed ‘S?’ indicates whether or not synergy was observed, with ‘y’ meaning that synergy was observed. Gaeumannomvces graminis (Take-all of Cereals) Mycelial fragments of the fungus from cryogenic storage were directly mixed into nutrient broth (PDB potato dextrose broth). After placing a (DMSO) solution of the test compounds into a microtiter plate (96-well format) the nutrient broth containing the fungal spores was added.
# Septoria tritici [9] = assay: Septoria tritici on wheat, preventive treatment; type: in vivo; conditions: solo, wheat Riband, 1 day preventive, 18 days after application
# Sclerotinia sclerotiorum = Sclerotinia sclerotiorum on oilseed rape, preventive treatment; type: in vivo; conditions: solo, 1 day preventive, 11 days after application
# Excerpt: as §1
# Sclerotinia sclerotiorum on Oilseed Rape, Preventive Treatment
# The compound activity was tested under 1 day preventive conditions. Oilseed rape plants with 3 unfolded leafs were sprayed with a track sprayer and 200 I/ha spray volume with the test compounds, either solo or in tankmix as shown in the table below.
# 1 day after application the plants were infested with a solution of Sclerotinia sclerotiorum mycelium. The plants were placed under plastic hoods and high humidity conditions in a climate chamber at 14 h day/10 h night cycle and 15° C. Disease infestation was evaluated visually 11 days after application and average activity calculated in relation to disease severity on untreated check.
# Sphaerotheca fuliginea = Sphaerotheca fuliginea (powdery mildew) on cucumber, preventive treatment; type: in vivo; conditions: solo, 2 days preventive, 10 days after application
# Excerpt: In the following Tables 'Activity (%)' means the assessed experimental activity (% disease control in this test when compared to untreated control leaf disks under the same conditions, which show extensive disease development) and “P” is the expected value calculated (expected) activity according to the COLBY formula (see above). The column headed 'S?' indicates whether or not synergy was observed, with 'y' meaning that synergy was observed. Sphaerotheca fuliqinea (Powdery Mildew) on Cucumber, Preventive Treatment […] Cucumber plants with unfolded cotyledons were sprayed with a roomsprayer and 40 ml/4 plants spray volume with the test compounds, either solo or in […] shown in the table below. 2 days after application the plants were infested with spores of Sphaerotheca fuliginea.
compound,measurement,setting,value
COCC(=O)N(c1c(C)cccc1C)[C@H](C)C(=O)OC [Mefenoxam],Activity (%),Pythium ultimum,50%
CCN(C)/C=N/c1cc(Br)c(OC2CC=CC2)nc1C [Q.063],pest or weed control at 200 ppm,[1],≥ 50%
same,pest or weed control at 200 ppm,[2],≥ 50%
same,pest or weed control at 200 ppm,[3],≥ 50%
same,Activity,[4]; rate 0.5 g ai/ha,0%
same,Activity,[4]; rate 2 g ai/ha,0%
same,pest or weed control at 200 ppm,Pyrenophora teres,≥ 50%
CC(C1CC1)C(O)(Cn1cncn1)c1ccc(Cl)cc1 (stereo not drawn) [Cyproconazole],Activity,[4]; rate 0.5 g ai/ha,38%
same,Activity,[4]; rate 2 g ai/ha,53%
same,inhibition of growth at 0.25 ppm,Septoria tritici [5]; rate 0.25 ppm,0%
same,inhibition of growth at 0.5 ppm,Septoria tritici [5]; rate 0.5 ppm,64%
same,inhibition of growth at 1 ppm,Septoria tritici [5]; rate 1 ppm,84%
same,inhibition of growth at 1.25 ppm,Septoria tritici [5]; rate 1.25 ppm,39%
same,inhibition of growth at 2.5 ppm,Septoria tritici [5]; rate 2.5 ppm,76%
OC(Cc1ccccc1Cl)(Cn1nc[nH]c1=S)C1(Cl)CC1 (stereo not drawn) [Prothioconazole],Activity,[6]; 50 g a.i./ha,55%
same,inhibition at 0.0125 ppm,Septoria tritici [7],70%
same,inhibition of growth at 0.0195312 ppm,Septoria tritici [5]; rate 0.01953125 ppm,69%
same,inhibition of growth at 0.03125 ppm,"Septoria tritici [5]; rate 0.03125 ppm, read-out: Activity",9%
same,inhibition of growth at 0.0390625 ppm,Septoria tritici [5]; rate 0.0390625 ppm,63%
same,inhibition of growth at 0.0625 ppm,Septoria tritici [5]; rate 0.0625 ppm,63%
same,inhibition at 0.00625 ppm,"Botrytis cinerea; Botrytis cinerea, rate 0.00625 ppm",0%
same,inhibition at 0.0125 ppm,"Botrytis cinerea; Botrytis cinerea, rate 0.0125 ppm",0%
same,inhibition at 0.025 ppm,"Botrytis cinerea; Botrytis cinerea, rate 0.025 ppm",0%
same,inhibition at 0.05 ppm,"Botrytis cinerea; Botrytis cinerea, rate 0.05 ppm",50%
same,Activity (%),Botrytis cinerea; rate 0.05 ppm,70%
same,inhibition at 0.0125 ppm,"[8]; applied alone, 0.0125 ppm",0%
same,inhibition at 0.0015625 ppm,"[8]; applied alone, rate 0.0015625 ppm",0%
same,inhibition at 0.003125 ppm,"[8]; applied alone, rate 0.003125 ppm",0%
same,inhibition at 0.00625 ppm,"[8]; applied alone, rate 0.00625 ppm",0%
same,inhibition at 0.0125 ppm,"[8]; applied alone, rate 0.0125 ppm",0%
same,inhibition at 0.0125 ppm,"[8]; single compound, rate 0.0125 ppm",0%
CCN(C)/C=N/c1cc(Br)c(OCc2c(F)cccc2F)nc1C [Q.326],pest or weed control at 200 ppm,[1],≥ 50%
same,pest or weed control at 200 ppm,[2],≥ 50%
same,pest or weed control at 200 ppm,[3],≥ 50%
same,melting point,,61 to 62 °C
same,pest or weed control at 200 ppm,Pyrenophora teres,≥ 50%
CCN(C)/C=N/c1cc(Br)c(OCc2ccccc2F)nc1C [Q.298],pest or weed control at 200 ppm,[1],≥ 50%
same,pest or weed control at 200 ppm,[2],≥ 50%
same,pest or weed control at 200 ppm,[3],≥ 50%
same,melting point,,57 to 61 °C
same,pest or weed control at 200 ppm,Pyrenophora teres,≥ 50%
CCN(C)/C=N/c1cc(Br)c(OCc2cccc(C)c2)nc1C [Q.128],pest or weed control at 200 ppm,[1],≥ 50%
same,pest or weed control at 200 ppm,[2],≥ 50%
same,pest or weed control at 200 ppm,[3],≥ 50%
same,melting point,,60 to 62 °C
same,pest or weed control at 200 ppm,Pyrenophora teres,≥ 50%
"Cn1cc(C(=O)Nc2cccc3c2C2CCC3C2=C(Cl)Cl)c(C(F)F)n1 (stereo not drawn) [(V), N-[9-(dichloromethylene)-1,2,3,4-tetrahydro-1,4-methanonaphthalen-5-yl]-3-(difluoromethyl)-1-methyl-1H-pyrazole-4-carboxamide, reference compound]",inhibition at 0.015625 ppm,Gaeumannomvces graminis; rate 0.015625 ppm,0%
same,inhibition at 0.03125 ppm,Gaeumannomvces graminis; rate 0.03125 ppm,20%
same,inhibition at 0.0625 ppm,Gaeumannomvces graminis; rate 0.0625 ppm,70%
same,inhibition at 0.015625 ppm,"Botrytis cinerea; Botrytis cinerea, rate 0.015625 ppm",20%
same,inhibition at 0.03125 ppm,"Botrytis cinerea; Botrytis cinerea, rate 0.03125 ppm, read-out: Activity (%)",50%
same,inhibition at 0.0625 ppm,"Botrytis cinerea; Botrytis cinerea, rate 0.0625 ppm, read-out: Activity (%)",70%
same,inhibition at 0.125 ppm,"Botrytis cinerea; Botrytis cinerea, rate 0.125 ppm",70%
same,inhibition at 0.03125 ppm,"[8]; applied alone, 0.03125 ppm",0%
same,inhibition at 0.0625 ppm,"[8]; applied alone, 0.0625 ppm",50%
same,inhibition at 0.125 ppm,"[8]; applied alone, 0.125 ppm",70%
same,inhibition at 0.03125 ppm,"[8]; applied alone, rate 0.03125 ppm",0%
same,inhibition at 0.0625 ppm,"[8]; applied alone, rate 0.0625 ppm",50%
CCN(C)/C=N/c1cc(Br)c(OCc2ccc(F)cc2C)nc1C [Q.320],pest or weed control at 200 ppm,[1],≥ 50%
same,pest or weed control at 200 ppm,[2],≥ 50%
same,pest or weed control at 200 ppm,[3],≥ 50%
same,melting point,,27 to 30 °C
same,pest or weed control at 200 ppm,Pyrenophora teres,≥ 50%
CCN(C)/C=N/c1cc(Br)c(OCc2cc(C)ccc2C)nc1C [Q.154],pest or weed control at 200 ppm,[1],≥ 50%
same,pest or weed control at 200 ppm,[2],≥ 50%
same,pest or weed control at 200 ppm,[3],≥ 50%
same,melting point,,53 to 57 °C
same,pest or weed control at 200 ppm,Pyrenophora teres,≥ 50%
CCN(C)/C=N/c1cc(Br)c(OCc2cc(C)ns2)nc1C [Q.235],pest or weed control at 200 ppm,[1],≥ 50%
same,pest or weed control at 200 ppm,[2],≥ 50%
same,pest or weed control at 200 ppm,[3],≥ 50%
same,melting point,,55 to 57 °C
same,pest or weed control at 200 ppm,Pyrenophora teres,≥ 50%
CCN(C)/C=N/c1cc(Br)c(OCc2ccccc2C)nc1C [Q.151],pest or weed control at 200 ppm,[1],≥ 50%
same,pest or weed control at 200 ppm,[2],≥ 50%
same,Activity,[6]; 200 g a.i./ha,3%
same,pest or weed control at 200 ppm,[3],≥ 50%
same,Activity,Septoria tritici [9]; 1 g a.i./ha,0%
same,Activity,Septoria tritici [9]; 3 g a.i./ha,0% and 4%
same,Activity,Septoria tritici [9]; 9 g a.i./ha,0%
same,Activity,Septoria tritici [9]; 81 g a.i./ha,43%
O=C(Nc1ccccc1-c1ccc(Cl)cc1)c1cccnc1Cl [Boscalid],Activity,Sclerotinia sclerotiorum; rate 50 g a.i./ha,8%
same,Activity,Sclerotinia sclerotiorum; rate 100 g a.i./ha,25%
CSC(=O)c1cccc2nnsc12 [Acibenzolar-s-methyl],Activity,Sphaerotheca fuliginea; rate 0.6 ppm,0%
same,Activity,Sphaerotheca fuliginea; rate 2 ppm,0%
same,Activity,Sphaerotheca fuliginea; rate 6 ppm,0%
same,Activity,Sphaerotheca fuliginea; rate 20 ppm,4%
